The source of these data is US8383139B2 (Bayer CropScience AG, priority 2008, dated 2013).

This series can be described thus: log P by HPLC on reversed-phase columns (C 18), EEC Directive 79/831 Annex V.A8. Type of series: physicochemical. The settings on record: for chromatographic logP: read-out: log P (pH2.3).
Setting [1] is: [a] HPLC, acid region pH 2.3, 0.1% aqueous phosphoric acid and acetonitrile.
Where [2] appears, read: [b] LC-MS, acid region pH 2.7, 0.1% aqueous formic acid and acetonitrile.
The mark [3] stands for this setting: reversed-phase C18 HPLC column, pH 2.3, pH 2.3, given in synthesis examples.

Structures are written as SMILES. Read-outs that look alike come from different tables or passages of the source.

As to `CCOc1ccc(Cc2nsc(Oc3cc(C)c(N=CN4CCCCC4)cc3C)n2)cc1` [Example 90], the log p under setting [1] was 2.23^[a].
Same read-out and setting: in the case of `Cc1cc(Oc2nc(Cc3c(F)cccc3Cl)ns2)c(C)cc1N=CN1CCCCC1` [Example 77] it was 2.12^[a]; in that of `Cc1cc(Oc2nc(Cc3cccc(F)c3)ns2)c(C)cc1N=CN1CCCCC1` [Example 81], 2.25^[a].
As for `Cc1cc(Oc2nc(Cc3ccc(F)cc3F)ns2)c(C)cc1N=CN1CCCCC1` [Example 55], the log p under setting [1] was 2.02^[a].
Same read-out and setting: in the case of `CCN(C)C=Nc1cc(C)c(Oc2nc(Cc3cccc(Br)c3)ns2)cc1C` [Example 65] it was 2.38^[a].
Consider `CCOCC(C1CC1)N(C)C=Nc1cc(C)c(Oc2nc(Cc3ccc(Cl)cc3)ns2)cc1C` (stereo not shown) [Example 124], for which the log p under setting [2] was 2.56^[b].
For the molecule `Cc1cc(Oc2nc(Cc3ccc4ccccc4c3)ns2)c(C)cc1N=CN1CCCCC1` [Example 92], the log p under setting [1] was 2.43^[a].
On the same count and under the same terms, the figure for `CCN(C)C=Nc1cc(C)c(Oc2nc(Cc3ccccc3[N+](=O)[O-])ns2)cc1C` [Example 106] is 2.07^[a]; for `Cc1cc(Oc2nc(Cc3ccc(C#N)cc3)ns2)c(C)cc1N=CN1CCCCC1` [Example 82] it is 2.06^[a]; for `Cc1cc(Oc2nc(Cc3ccc(C(F)(F)F)cc3)ns2)c(C)cc1N=CN1CCCCC1` [Example 79] it is 2.66^[a].
Turning to `Cc1cc(Oc2nc(Cc3ccc(C(F)(F)F)cc3)ns2)c(C)cc1N=CN(C)CC(F)F` [Example 129], under setting [2], the log p was 2.38^[b].
Regarding `Cc1cc(Oc2nc(Cc3ccc(F)cc3)ns2)c(C)cc1N=CN(C)CC(F)F` [Example 131], the log p under setting [2] is 1.99^[b].
With `CCN(C)C=Nc1cc(Cl)c(Oc2nc(Cc3ccc(SC(F)(F)F)cc3)ns2)cc1C` [Example 95], the log p under setting [1] was 2.51^[a].
On the same count and under the same terms, the figure for `CCN(C)C=Nc1cc(C)c(Oc2nc(Cc3ccc(C(F)(F)F)cc3)ns2)cc1C` [Example 71] is 2.29^[a].
Same read-out and setting: in the case of `Cc1cc(Oc2nc(Cc3ccc(OC(F)(F)F)cc3)ns2)c(C)cc1N=CN1CCCCC1` [Example 58] it was 2.71^[a]; in that of `Cc1cc(Oc2nc(Cc3ccc(Oc4ccccc4)cc3)ns2)c(C)cc1N=CN1CCCCC1` [Example 85], 2.85^[a].
Still for that read-out and setting: in the case of `Cc1ccccc1Cc1nsc(Oc2cc(C)c(N=CN3CCCCC3)cc2C)n1` [Example 68] it was 2.06^[a]; in that of `CCN(C)C=Nc1cc(C)c(Oc2nc(Cc3ccc(C#N)cc3)ns2)cc1C` [Example 69], 1.63^[a].
With `Cc1ccc(S(=O)(=O)c2nc(C3(c4ccc(Cl)cc4)CC3)ns2)cc1` [3-[1-(4-Chlorophenyl)cyclopropyl]-5-[(4-methylphenyl)sulphonyl]-1,2,4-thiadiazole], under setting [3], the chromatographic logP amounted to 4.97.
For `O=c1oc(C2(c3ccc(Cl)cc3)CC2)ns1`, under “pH 2.3, given in synthesis examples”, the chromatographic logP worked out at 3.59.
Turning to `COc1ccc(Cc2nsc(Oc3cc(C)c(N=CN4CCCCC4)cc3C)n2)cc1` [Example 76], the log p under setting [1] is 1.9^[a].
Same read-out and setting: the figure for `Cc1cc(F)c(Br)cc1Cc1nsc(Oc2cc(C)c(N=CN3CCCCC3)cc2C)n1` [Example 115] is 2.76^[a]; for `Cc1cc(Oc2nc(Cc3ccccc3[N+](=O)[O-])ns2)c(C)cc1N=CN1CCCCC1` [Example 121] it is 2.16^[a].
With `Cc1cc(Oc2nc(C3(c4ccc(Cl)cc4)CC3)ns2)c(C)cc1N` [4-({3-[1-(4-Chlorophenyl)cyclopropyl]-1,2,4-thiadiazol-5-yl}oxy)-2,5-dimethylaniline], the chromatographic logP under setting [3] worked out at 4.44.
Turning to `CCN(C)C=Nc1cc(C(C)C)c(Oc2nc(Cc3ccc(Br)cc3)ns2)cc1C` [Example 111], under setting [1], the log p was 2.75^[a].
As for `CCOCC(C1CC1)N(C)C=Nc1cc(C)c(Oc2nc(Cc3ccc(C(F)(F)F)cc3)ns2)cc1C` (stereo not shown) [Example 133], the log p under setting [2] is 2.43^[b].
For `CCN(C)C=Nc1cc(C)c(Oc2nc(Cc3ccc(F)c(F)c3)ns2)cc1C` [Example 54], under setting [1], the log p was 1.86^[a].
On the same count and under the same terms, in the case of `Cc1cc(Oc2nc(Cc3ccccc3Br)ns2)c(C)cc1N=CN1CCCCC1` [Example 98] it was 2.36^[a].
With `Cc1ccc(Cc2nsc(Oc3cc(C)c(N=CN(C)C4CC4)cc3C)n2)cc1` [Example 138], under setting [2], the log p is 2.19^[b].
Consider `CCN(C)C=Nc1cc(C)c(Oc2nc(Cc3cccc(F)c3)ns2)cc1C` [Example 78], for which the log p under setting [1] is 1.87^[a].
Still for that read-out and setting: the figure for `CCN(C)C=Nc1cc(C(C)C)c(Oc2nc(Cc3ccc(Cl)cc3Cl)ns2)cc1C` [Example 108] is 2.93^[a]; for `Cc1cc(Oc2nc(Cc3ccc(F)cc3)ns2)c(C)cc1N=CN1CCCCC1` [Example 57] it is 2.05^[a]; for `Cc1ccc(Br)cc1Cc1nsc(Oc2cc(C)c(N=CN3CCCCC3)cc2C)n1` [Example 83] it is 2.79^[a].
For `CCOCC(C1CC1)N(C)C=Nc1cc(C)c(Oc2nc(Cc3ccc(OC(F)(F)F)cc3)ns2)cc1C` (stereo not shown) [Example 143], the log p under setting [2] was 2.75^[b].
In the case of `CCN(C)C=Nc1cc(C)c(Oc2nc(Cc3c(F)cc(F)cc3F)ns2)cc1C` [Example 105], the log p under setting [1] was 2.1^[a].
For `CCN(C)C=Nc1cc(Cl)c(Oc2nc(Cc3ccc(Cl)cc3Cl)ns2)cc1C` [Example 118], the log p under setting [2] is 2.42^[b].
Turning to `CCOCC(C1CC1)N(C)C=Nc1cc(C)c(Oc2nc(Cc3ccc(OC)cc3)ns2)cc1C` (stereo not shown) [Example 134], the log p under setting [2] is 2.36^[b].
On the same count and under the same terms, in the case of `Cc1cc(Oc2nc(Cc3ccc(Cl)cc3)ns2)c(C)cc1N=CN(C)C1CC1` [Example 123] it was 2.06^[b].
Take `CCN(C)C=Nc1cc(C)c(Oc2nc(Cc3ccc(F)c(C(F)(F)F)c3)ns2)cc1C` [Example 94]: the log p under setting [1] is 2.24^[a].
Still for that read-out and setting: in the case of `CCN(C)C=Nc1cc(C)c(Oc2nc(Cc3cc(Br)c(F)cc3C)ns2)cc1C` [Example 116] it was 2.57^[a].
On to `Cc1cc(Oc2nc(Cc3ccc(SC(F)(F)F)cc3)ns2)c(C)cc1N=CN(C)CC(F)F` [Example 125], for which, under setting [2], the log p is 2.68^[b].
Consider `CCOCC(NC=Nc1cc(C)c(Oc2nc(Cc3ccc(Cl)cc3)ns2)cc1C)C1CC1` (stereo not shown) [Example 139], for which, under setting [1], the log p was 2.7^[a].
Consider `Cc1cc(Oc2nc(Cc3cccc(Cl)c3)ns2)c(C)cc1N` [4-{[3-(3-Chlorobenzyl)-1,2,4-thiadiazol-5-yl]oxy}-2,5-dimethylaniline], for which the chromatographic logP under setting [3] stood at 3.68.
Regarding `CCN(C)C=Nc1cc(C)c(Oc2nc(Cc3cc(F)ccc3F)ns2)cc1C` [Example 67], under setting [1], the log p was 1.66^[a].
As for `Cc1ccc(Cc2nsc(Oc3cc(C)c(N=CN(C)CC(F)F)cc3C)n2)cc1` [Example 137], the log p under setting [2] is 2.25^[b].
Regarding `Cc1cc(Oc2nc(Cc3ccc(Cl)cc3)ns2)c(C)cc1N=CN(C)CC(F)F` [Example 53], under setting [1], the log p is 2.18^[a].
In the case of `CCN(C)C=Nc1cc(C(C)C)c(Oc2nc(Cc3ccc(Cl)cc3)ns2)cc1C` [Example 109], under setting [1], the log p was 2.71^[a].
The same measure, in the same setting: the figure for `Cc1ccc(Cc2nsc(Oc3cc(C)c(N=CN4CCCCC4)cc3C)n2)cc1` [Example 122] is 2.49^[a].
On the same count and under the same terms, the figure for `Cc1cc(Oc2nc(Cc3ccc(F)c(C(F)(F)F)c3)ns2)c(C)cc1N=CN1CCCCC1` [Example 91] is 2.44^[a].
For `CCN(C)C=Nc1cc(C)c(Oc2nc(Cc3ccc(C)cc3)ns2)cc1C` [Example 120], the log p under setting [2] is 2.12^[b].
On to `CCN(C)C=Nc1cc(Cl)c(Oc2nc(Cc3ccc(Br)cc3)ns2)cc1C` [Example 119], for which, under setting [2], the log p is 2.26^[b].
As for `CCN(C)C=Nc1cc(C)c(Oc2nc(Cc3cccc(C)c3)ns2)cc1C` [Example 113], the log p under setting [1] is 2.28^[a].
On the same count and under the same terms, the figure for `Cc1cc(Oc2nc(Cc3cccc(Cl)c3Cl)ns2)c(C)cc1N=CN1CCCCC1` [Example 93] is 2.38^[a]; for `Cc1cc(Oc2nc(Cc3ccccc3F)ns2)c(C)cc1N=CN1CCCCC1` [Example 104] it is 2.27^[a]; for `CCN(C)C=Nc1cc(C(C)C)c(Oc2nc(Cc3ccc(F)cc3)ns2)cc1C` [Example 110] it is 2.41^[a].
In the case of `CCN(C)C=Nc1cc(C)c(Oc2nc(Cc3ccc(OC(F)(F)F)cc3)ns2)cc1C` [Example 56], the log p under setting [1] is 2.21^[a].
The same measure, in the same setting: the figure for `Cc1cc(Oc2nc(Cc3ccc(F)c(F)c3)ns2)c(C)cc1N=CN1CCCCC1` [Example 63] is 2.39^[a]; for `CCN(C)C=Nc1cc(C)c(Oc2nc(Cc3ccccc3C)ns2)cc1C` [Example 72] it is 1.89^[a]; for `CCN(C)C=Nc1cc(C)c(Oc2nc(Cc3ccc(SC(F)(F)F)cc3)ns2)cc1C` [Example 102] it is 2.78^[a].
The same measure, in the same setting: the figure for `CCN(C)C=Nc1cc(C)c(Oc2nc(Cc3ccc(-c4ccccc4)cc3)ns2)cc1C` [Example 73] is 2.8^[a]; for `CCN(C)C=Nc1cc(C)c(Oc2nc(Cc3ccc(F)cc3)ns2)cc1C` [Example 60] it is 1.74^[a].
Regarding `CCN(C)C=Nc1cc(C)c(Oc2nc(Cc3ccc(OC)cc3)ns2)cc1C` [Example 75], under setting [1], the log p is 2.98^[a].
Still for that read-out and setting: the figure for `CCN(C)C=Nc1cc(C)c(Oc2nc(Cc3ccccc3F)ns2)cc1C` [Example 99] is 2.12^[a].
Same read-out and setting: in the case of `CCOCC(NC=Nc1cc(C)c(Oc2nc(Cc3ccc(OC(F)(F)F)cc3)ns2)cc1C)C1CC1` (stereo not shown) [Example 101] it was 2.85^[a].
With `Cc1cc(Oc2nc(Cc3ccc(SC(F)(F)F)cc3)ns2)c(C)cc1N=CN(C)C1CC1` [Example 126], the log p under setting [2] is 1.83^[b].
`Cc1cc(Oc2nc(Cc3c(Cl)cccc3Cl)ns2)c(C)cc1N=CN1CCCCC1` [Example 86]: the log p under setting [1] was 2.6^[a].
In the case of `COc1ccc(Cc2nsc(Oc3cc(C)c(N=CN(C)C4CC4)cc3C)n2)cc1` [Example 135], the log p under setting [2] is 1.92^[b].
Consider `CCN(C)C=Nc1cc(C)c(Oc2nc(Cc3ccccc3Cl)ns2)cc1C` [Example 61], for which the log p under setting [1] was 1.97^[a].
For `CCOCC(C1CC1)N(C)C=Nc1cc(C)c(Oc2nc(Cc3ccc(SC(F)(F)F)cc3)ns2)cc1C` (stereo not shown) [Example 128], under setting [2], the log p was 2.92^[b].
Consider `Cc1cc(Oc2nc(Cc3ccc(-c4ccccc4)cc3)ns2)c(C)cc1N=CN1CCCCC1` [Example 70], for which the log p under setting [1] was 2.45^[a].
